Reference: patent US5387409A, “Boronic acid adducts of rhenium dioxime and technetium-99m dioxime complexes containing a biochemically active group” (Bracco International B.V., priority 1992, dated 1995)

Tests used:
[1] = Cyclic voltammetry in DMF (peak potential vs. Ag/AgNO3); format: physicochemical; conditions: for Epc(DMF): cathodic peak potential in DMF vs. Ag/AgNO3 (Table 3); for Peak Potential (EP), Nitro-base Anodic / Peak Potential (EP), Nitro-base Cathodic: DMF, scan rate = 100 mV/sec, Ag/AgNO3 reference (Table 2)
xanthine oxidase = assay: Enzyme assay: xanthine oxidase reduction (disappearance of the nitro compound, UV/Visible 326 nm); format: biochemical
Procedure: The nitroimidazole boronic acids in this invention were examined in an assay using the enzyme xanthine oxidase. […] All reagents were degassed prior to mixing by passage of argon over the surface for 20 minutes. Loss of the nitro group (an indication of reduction) was monitored every 5 minutes using a UV/Visible spectrophotometer set at 326 nm. The half-lives of disappearance of the nitro compounds were determined by plotting log (concentration) mmole/ml vs time for all compounds studied.

[2] = Electrochemical peak potential (cathodic) in water vs. saturated calomel electrode; format: physicochemical; conditions: cathodic peak potential in water vs. saturated calomel electrode (Table 3)
[3] = Biodistribution: lung uptake of amine-containing 99mTc (BATO) complexes in rats; format: in vivo; conditions: I.V.
Procedure: Biodistribution Results for Amine-substituted Boron complexes, ^99m Tc(chloride)(dimethylglyoxime)3 B-R (wherein R is or contains an amine)
The other complexes listed were prepared using the methodology described in Example 2. Lung uptake at 5 and 60 minutes post I.V. administration of these compounds was noted.

estrogen receptor = assay: In vitro estrogen receptor binding studies, cytosolic preparations of isolated rat uteri; conditions: rat uteri cytosol; preparations with specific activity from 400 to 2000 Ci/mmol
[4] = hypoxanthine, pH 7.4, 0.25 μMoles nitro compound

Compound | Epc(DMF) [1] | half life (enzyme assay) (xanthine oxidase; [4]) | Epc(Aqueous) [2] | Peak Potential (EP), Nitro-base Anodic [1] | Peak Potential (EP), Nitro-base Cathodic [1] | other results
O=[N+]([O-])c1cn(Cc2ccc(B(O)O)cc2)cn1 [BB4NO2, 1-(4-Nitroimidazole)-benzylboronic acid] | -1.80 V | 95 min | -0.50 V |  |  | 
O=[N+]([O-])c1nccn1Cc1ccc(B(O)O)cc1 [BBNO2, 1-(2-Nitroimidazoyl)benzylboronic acid] |  | 11 min |  |  |  | 
O=[N+]([O-])c1nccn1CCc1ccc(B(O)O)cc1 [BPhEtNO2, 4-(2-Nitroimidazolylethyl)phenyl boronic acid] | -1.53 V | 42.5 min | -0.30 V |  |  | 
O=[N+]([O-])c1nccn1CC=CB(O)O [BPropeneNO2, 2-Nitroimidazolyl-N1-[2-propenyl]-3-boronic acid] | -1.56 V | 24 min | -0.30 V |  |  | 
Cc1ncc([N+](=O)[O-])n1CCO [Metronidazole, reference compound] | -1.62 V |  | -0.46 V | -1.55 | -1.63 | half life (enzyme assay) (xanthine oxidase; pH 7.4): > 1440 min
COCC(O)Cn1ccnc1[N+](=O)[O-] (stereo not drawn) [Misonidazole, reference compound] | -1.49 V | 45 min | -0.33 V | -1.43 | -1.51 | 
^99 Tc(chlorine)(1,2-cyclohexanedione dioxime)3 1-(2-nitroimidazoyl)benzyl boron [Complex of Example 13] |  |  |  | -1.50 | -1.56 | 
^99 Tc(chlorine)(dimethylglyoxime)3 -1-(2-nitroimidazoyl)benzylboron [Complex of Example 15] |  |  |  | -1.51 | -1.58 | 
^99m Tc(chloride)(dimethylglyoxime)3 [4-[2-[(1-methylethyl)amino]propyl]phenyl]boron |  |  |  |  |  | % Injected Dose in Lungs, 5 min. P.I. ([3]; 5 min. post-injection): 3.25 % Injected Dose; % Injected Dose in Lungs, 60 min. P.I. ([3]; 60 min. post-injection): 2.19 % Injected Dose
^99m/99 Tc(chloride)(dimethylglyoxime)3 (estradiol boron) [technetium labeled estradiol] |  |  |  |  |  | specific binding (estrogen receptor): 10-30 % of the total bound activity
